Measured values as given in PubChem BioAssay AID330 (DTP/NCI, 2004).
Where “and” joins values, the source holds several entries; their conditions need not be identical. Identical values can stand only once. Inconclusive results and toxic doses are left out. The calls were made as follows: active = survival T/C of 150% or more; inactive = T/C below 125% in these data.

System: P388 leukemia ip, CD2F1 mice, survival T/C
Assay: NCI In Vivo Anticancer Drug Screen. Data for tumor model P388 Leukemia (intraperitoneal) in CD2F1 (CDF1) mice
Details: endpoint: median survival time, higher = longer survival
Outline: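 Mice carrying the transplanted tumor received test compound or vehicle. Survival was recorded in each group, and the value is the treated-group measurement divided by that of the vehicle-treated control group.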

[1] = dose: 100.0 mg/kg/injection, schedule: Q01DX001 (ip), vehicle: Klucel (hydroxypropylcellulose) (HPC)
[2] = dose: 200.0 mg/kg/injection, schedule: Q01DX001 (ip), vehicle: Klucel (hydroxypropylcellulose) (HPC)
[3] = dose: 30.0 mg/kg/injection, schedule: Q01DX005 (ip), vehicle: saline with Tween-80
[4] = dose: 60.0 mg/kg/injection, schedule: Q01DX005 (ip), vehicle: saline with Tween-80
[5] = dose: 120.0 mg/kg/injection, schedule: Q01DX005 (ip), vehicle: saline with Tween-80
[6] = dose: 240.0 mg/kg/injection, schedule: Q01DX005 (ip), vehicle: saline with Tween-80
[7] = dose: 100.0 mg/kg/injection, schedule: Q01DX001 (ip), vehicle: saline with Tween-80
[8] = dose: 200.0 mg/kg/injection, schedule: Q01DX001 (ip), vehicle: saline with Tween-80
[9] = dose: 25.0 mg/kg/injection, schedule: Q01DX009 (ip), vehicle: saline with Tween-80
[10] = dose: 50.0 mg/kg/injection, schedule: Q01DX009 (ip), vehicle: saline with Tween-80
[11] = dose: 100.0 mg/kg/injection, schedule: Q01DX009 (ip), vehicle: saline with Tween-80
[12] = dose: 50.0 mg/kg/injection, schedule: Q01DX005 (ip), vehicle: Klucel (hydroxypropylcellulose) (HPC)
[13] = dose: 100.0 mg/kg/injection, schedule: Q01DX005 (ip), vehicle: Klucel (hydroxypropylcellulose) (HPC)
[14] = dose: 200.0 mg/kg/injection, schedule: Q01DX005 (ip), vehicle: Klucel (hydroxypropylcellulose) (HPC)
[15] = dose: 50.0 mg/kg/injection, schedule: Q01DX005 (ip), vehicle: saline with Tween-80
[16] = dose: 100.0 mg/kg/injection, schedule: Q01DX005 (ip), vehicle: saline with Tween-80
[17] = dose: 200.0 mg/kg/injection, schedule: Q01DX005 (ip), vehicle: saline with Tween-80

Measured: T/C

C[C@]12CC[C@H]3[C@@H](CCC4=CC(=O)CC[C@@H]43)[C@@H]1CC[C@@H]2OC(=O)N(CCCl)N=O
inactive: dose: 12.5 mg/kg/injection, schedule: Q01DX009 (ip), vehicle: other 123 % of control | dose: 15.0 mg/kg/injection, schedule: Q01DX009 (ip), vehicle: saline 96 % of control | dose: 15.0 mg/kg/injection, schedule: Q04DX003 (ip), vehicle: saline 100 % of control and 107 % of control | dose: 25.0 mg/kg/injection, schedule: Q01DX005 (ip), vehicle: other 104 % of control | dose: 25.0 mg/kg/injection, schedule: Q01DX009 (ip), vehicle: other 118 % of control | dose: 30.0 mg/kg/injection, schedule: Q01DX009 (ip), vehicle: saline 86 % of control | dose: 30.0 mg/kg/injection, schedule: Q04DX003 (ip), vehicle: saline 101 % of control and 106 % of control and 112 % of control | dose: 50.0 mg/kg/injection, schedule: Q01DX005 (ip), vehicle: other 96 % of control | dose: 60.0 mg/kg/injection, schedule: Q01DX009 (ip), vehicle: saline 91 % of control | dose: 60.0 mg/kg/injection, schedule: Q04DX003 (ip), vehicle: saline 98 % of control and 101 % of control and 120 % of control | dose: 120.0 mg/kg/injection, schedule: Q01DX009 (ip), vehicle: saline with Tween-80 86 % of control | dose: 120.0 mg/kg/injection, schedule: Q01DX009 (ip), vehicle: saline 92 % of control | dose: 120.0 mg/kg/injection, schedule: Q04DX003 (ip), vehicle: saline 102 % of control and 106 % of control

CCOC(=O)/C=C(\NC1CC(OC2C[C@](O)(C(C)=O)Cc3c(O)c4c(c(O)c32)C(=O)c2c(OC)cccc2C4=O)OC(C)C1O)C(=O)OCC (stereo partly drawn)
inactive: dose: 6.25 mg/kg/injection, schedule: Q04DX003 (ip), vehicle: saline with Tween-80 106 % of control | dose: 12.5 mg/kg/injection, schedule: Q04DX003 (ip), vehicle: saline with Tween-80 113 % of control | dose: 25.0 mg/kg/injection, schedule: Q04DX003 (ip), vehicle: saline with Tween-80 105 % of control | dose: 50.0 mg/kg/injection, schedule: Q04DX003 (ip), vehicle: saline with Tween-80 124 % of control

C/C(NCCc1ccccc1)=C1\CCOC1=O
inactive: dose: 50.0 mg/kg/injection, schedule: Q01DX001 (ip), vehicle: Klucel (hydroxypropylcellulose) (HPC) 101 % of control | [1] 96 % of control | [2] 104 % of control

COc1cc(C2C(C(C)=O)=C(C)Oc3cc4c(cc32)OCO4)cc(OC)c1OC (stereo not drawn)
inactive: [3] 89 % of control | [4] 87 % of control and 89 % of control | [5] 90 % of control | [6] 87 % of control

O=C(NC1CCCCC1)Oc1ccccc1-c1ccccc1
inactive: [7] 100 % of control | [8] 100 % of control | dose: 400.0 mg/kg/injection, schedule: Q01DX001 (ip), vehicle: saline with Tween-80 100 % of control

O=C(O)c1ccccc1C(c1ccccc1)c1ccccc1
inactive: [9] 100 % of control | [10] 100 % of control | [11] 100 % of control

COC1=C(C)C(=O)c2[nH]c(Cl)c(C=O)c2C1=O
inactive: [7] 99 % of control | [8] 95 % of control

CC1(C)OCC2CCC=C21 (stereo not drawn)
inactive: [4] 92 % of control | [5] 99 % of control | [6] 97 % of control

Cc1cc(OC(=O)Nc2ccc(Cl)c([N+](=O)[O-])c2)c(Cl)cc1Br
inactive: dose: 50.0 mg/kg/injection, schedule: Q01DX009 (ip), vehicle: saline + alcohol 100 % of control | dose: 100.0 mg/kg/injection, schedule: Q01DX009 (ip), vehicle: saline + alcohol 105 % of control | dose: 200.0 mg/kg/injection, schedule: Q01DX009 (ip), vehicle: saline + alcohol 88 % of control

CCOC(=O)C1=C(O)C(=O)NC1c1ccccc1 (stereo not drawn)
inactive: dose: 15.0 mg/kg/injection, schedule: Q01DX005 (ip), vehicle: Klucel (hydroxypropylcellulose) (HPC) 111 % of control | dose: 30.0 mg/kg/injection, schedule: Q01DX005 (ip), vehicle: Klucel (hydroxypropylcellulose) (HPC) 102 % of control | dose: 60.0 mg/kg/injection, schedule: Q01DX005 (ip), vehicle: Klucel (hydroxypropylcellulose) (HPC) 102 % of control and 107 % of control

CCOC(=O)NC1CC2c3ccccc3C1c1ccccc12 (stereo not drawn)
inactive: [4] 101 % of control | [5] 101 % of control | [6] 107 % of control

O=C1c2ccccc2C(=O)N1CCS(=O)(=O)O
inactive: dose: 12.5 mg/kg/injection, schedule: Q01DX009 (ip), vehicle: saline 100 % of control | dose: 25.0 mg/kg/injection, schedule: Q01DX009 (ip), vehicle: saline 104 % of control | dose: 50.0 mg/kg/injection, schedule: Q01DX009 (ip), vehicle: saline 100 % of control | dose: 100.0 mg/kg/injection, schedule: Q01DX009 (ip), vehicle: saline 98 % of control

CNP1(NC)=NP(N(C)C)(N(C)C)=NP(N(C)C)(N(C)C)=N1
inactive: dose: 50.0 mg/kg/injection, schedule: Q01DX005 (ip), vehicle: saline 102 % of control | dose: 100.0 mg/kg/injection, schedule: Q01DX005 (ip), vehicle: saline 112 % of control | dose: 200.0 mg/kg/injection, schedule: Q01DX005 (ip), vehicle: saline 104 % of control

CCN1C(=O)C(=C2C=C(c3ccccc3)C(C#N)(c3ccccc3)C(c3ccccc3)=C2)C(=O)N(CC)C1=S (stereo not drawn)
inactive: [12] 99 % of control | [13] 97 % of control | [14] 98 % of control

CCCCCCC(=O)/C=C/c1ccc([N+](=O)[O-])cc1
inactive: [10] 99 % of control | [11] 99 % of control | dose: 200.0 mg/kg/injection, schedule: Q01DX009 (ip), vehicle: saline with Tween-80 92 % of control

[N-]=[N+]=Nc1ccc(C(=O)ON2C(=O)CCC2=O)cc1
inactive: [15] 97 % of control | [16] 105 % of control | [17] 119 % of control

C[n+]1cccc(SC2CCC3CC4CC3C2C4)c1 (stereo not drawn)
inactive: dose: 12.5 mg/kg/injection, schedule: Q01DX009 (ip), vehicle: saline with Tween-80 113 % of control | [9] 102 % of control

O=c1c(N=Nc2ccccc2)c(O)n(-c2ccc(Cl)cc2)c(=S)n1-c1ccc(Br)cc1
inactive: dose: 100.0 mg/kg/injection, schedule: Q04DX002 (ip), vehicle: saline with Tween-80 102 % of control | dose: 200.0 mg/kg/injection, schedule: Q04DX002 (ip), vehicle: saline with Tween-80 103 % of control | dose: 400.0 mg/kg/injection, schedule: Q04DX002 (ip), vehicle: saline with Tween-80 94 % of control

CCCCCCN1CCN(Cc2ccc(N(CC)CC)cc2)C(=O)C1=O
inactive: [12] 91 % of control | [13] 100 % of control | [14] 105 % of control

COCC1(C)CCCC2(C)C3=C(CC=C(OC)C3)CCC12 (stereo not drawn)
inactive: [1] 102 % of control | [2] 94 % of control | dose: 400.0 mg/kg/injection, schedule: Q01DX001 (ip), vehicle: Klucel (hydroxypropylcellulose) (HPC) 90 % of control

O=C1NC(=O)C(O)(C2=C(O)CCCC2=O)C(=O)N1
inactive: [15] 99 % of control | [16] 103 % of control | [17] 94 % of control

Cc1cc(C)c(S(=O)(=O)N/N=C(\CBr)c2ccccc2)c(C)c1
inactive: dose: 7.5 mg/kg/injection, schedule: Q01DX005 (ip), vehicle: saline with Tween-80 97 % of control | dose: 15.0 mg/kg/injection, schedule: Q01DX005 (ip), vehicle: saline with Tween-80 91 % of control | [3] 102 % of control | [6] 89 % of control
